Test results published in ChEMBL document CHEMBL1146607, “Synthesis and antifungal activity of 2,5-disubstituted-6-arylamino-4,7-benzimidazolediones” (2003).
In brackets after ≈: the same amount, converted by molar mass.

Columns and labels:
Assay type in all cases: functional
Aspergillus niger = assay: In vitro antifungal activity against Aspergillus niger KCTC 1231 was measured
Candida albicans = assay: In vitro antifungal activity against Candida albicans ATCC 10231 was measured
Pichia kudriavzevii = assay: In vitro antifungal activity against Candida krusei ATCC 749 was measured
Candida tropicalis = assay: In vitro antifungal activity against Candida tropicalis ATCC 28775 was measured

Compound | MIC (Aspergillus niger) | MIC (Candida albicans) | MIC (Pichia kudriavzevii) | MIC (Candida tropicalis)
O=C1C(Cl)=C(Nc2ccc(F)cc2)C(=O)c2[nH]c(-c3ccncc3)nc21 | 100 µg/mL (≈ 271 µM) | > 100 µg/mL | > 100 µg/mL | 6.3 µg/mL (≈ 17.1 µM)
COc1ccc(NC2=C(Cl)C(=O)c3nc(-c4cccnc4)[nH]c3C2=O)cc1 | 100 µg/mL (≈ 263 µM) | > 100 µg/mL | > 100 µg/mL | 50 µg/mL (≈ 131 µM)
O=C1C(Cl)=C(Cl)C(=O)c2[nH]c(-c3ccccn3)nc21 | 100 µg/mL (≈ 340 µM) | > 100 µg/mL | > 100 µg/mL | 25 µg/mL (≈ 85 µM)
O=C1C=CC(=O)c2[nH]c(-c3ccccn3)nc21 | 100 µg/mL (≈ 444 µM) | > 100 µg/mL | > 100 µg/mL | 100 µg/mL (≈ 444 µM)
O=C1C=C(Nc2ccc(I)cc2)C(=O)c2[nH]c(-c3ccccn3)nc21 | 100 µg/mL (≈ 226 µM) | 50 µg/mL (≈ 113 µM) | 1.6 µg/mL (≈ 3.62 µM) | 0.8 µg/mL (≈ 1.81 µM)
COc1ccc(NC2=C(Cl)C(=O)c3nc(-c4ccncc4)[nH]c3C2=O)cc1 | 100 µg/mL (≈ 263 µM) | > 100 µg/mL | > 100 µg/mL | 25 µg/mL (≈ 65.7 µM)
O=C1C(Cl)=C(Nc2ccc(F)cc2)C(=O)c2[nH]c(-c3cccnc3)nc21 | 100 µg/mL (≈ 271 µM) | > 100 µg/mL | > 100 µg/mL | 12.5 µg/mL (≈ 33.9 µM)
O=C1C(Cl)=C(Nc2ccc(Br)cc2)C(=O)c2[nH]c(-c3ccncc3)nc21 | 100 µg/mL (≈ 233 µM) | > 100 µg/mL | > 100 µg/mL | 12.5 µg/mL (≈ 29.1 µM)
O=C1C(Cl)=C(Nc2ccc(Br)cc2)C(=O)c2[nH]c(-c3cccnc3)nc21 | 100 µg/mL (≈ 233 µM) | > 100 µg/mL | > 100 µg/mL | 50 µg/mL (≈ 116 µM)
O=C1C(Cl)=C(Nc2ccc(Cl)cc2)C(=O)c2[nH]c(-c3cccnc3)nc21 | 100 µg/mL (≈ 260 µM) | > 100 µg/mL | > 100 µg/mL | 25 µg/mL (≈ 64.9 µM)
COc1ccc(NC2=CC(=O)c3[nH]c(-c4ccccn4)nc3C2=O)cc1 | 50 µg/mL (≈ 144 µM) | 6.3 µg/mL (≈ 18.2 µM) | 1.6 µg/mL (≈ 4.62 µM) | 0.8 µg/mL (≈ 2.31 µM)
O=C1C(Nc2ccc(F)cc2)=CC(=O)c2[nH]c(-c3ccccn3)nc21 | 100 µg/mL (≈ 299 µM) | 100 µg/mL (≈ 299 µM) | 50 µg/mL (≈ 150 µM) | 1.6 µg/mL (≈ 4.79 µM)
CCOc1ccc(NC2=CC(=O)c3nc(-c4ccccn4)[nH]c3C2=O)cc1 | 50 µg/mL (≈ 139 µM) | 50 µg/mL (≈ 139 µM) | 1.6 µg/mL (≈ 4.44 µM) | 0.8 µg/mL (≈ 2.22 µM)
O=C1C(Cl)=C(Nc2ccc(I)cc2)C(=O)c2[nH]c(-c3ccccn3)nc21 | > 100 µg/mL | 50 µg/mL (≈ 105 µM) | 100 µg/mL (≈ 210 µM) | 3.2 µg/mL (≈ 6.71 µM)
O=C1C(Cl)=C(Nc2ccc(Cl)cc2)C(=O)c2[nH]c(-c3ccncc3)nc21 | 100 µg/mL (≈ 260 µM) | > 100 µg/mL | > 100 µg/mL | 3.2 µg/mL (≈ 8.31 µM)

These reach a lower MIC (Aspergillus niger). Values come first.

MIC (Aspergillus niger) | MIC (Candida albicans) | MIC (Pichia kudriavzevii) | MIC (Candida tropicalis) | Compound
25 µg/mL (≈ 65.7 µM) | 12.5 µg/mL (≈ 32.8 µM) | 12.5 µg/mL (≈ 32.8 µM) | 1.6 µg/mL (≈ 4.2 µM) | COc1ccc(NC2=C(Cl)C(=O)c3nc(-c4ccccn4)[nH]c3C2=O)cc1
25 µg/mL (≈ 67.8 µM) | 12.5 µg/mL (≈ 33.9 µM) | 6.3 µg/mL (≈ 17.1 µM) | 3.2 µg/mL (≈ 8.68 µM) | O=C1C(Cl)=C(Nc2ccc(F)cc2)C(=O)c2[nH]c(-c3ccccn3)nc21
1.6 µg/mL (≈ 4.05 µM) | 50 µg/mL (≈ 127 µM) | 1.6 µg/mL (≈ 4.05 µM) | 0.8 µg/mL (≈ 2.02 µM) | O=C1C=C(Nc2ccc(Br)cc2)C(=O)c2[nH]c(-c3ccccn3)nc21
3.2 µg/mL (≈ 9.12 µM) | 50 µg/mL (≈ 143 µM) | 1.6 µg/mL (≈ 4.56 µM) | 0.8 µg/mL (≈ 2.28 µM) | O=C1C=C(Nc2ccc(Cl)cc2)C(=O)c2[nH]c(-c3ccccn3)nc21
25 µg/mL (≈ 68.5 µM) | 12.5 µg/mL (≈ 34.3 µM) | 3.2 µg/mL (≈ 8.77 µM) | 1.6 µg/mL (≈ 4.39 µM) | Cc1ccc(NC2=C(Cl)C(=O)c3nc(-c4ccccn4)[nH]c3C2=O)cc1
25 µg/mL (≈ 63.3 µM) | 12.5 µg/mL (≈ 31.7 µM) | 12.5 µg/mL (≈ 31.7 µM) | 3.2 µg/mL (≈ 8.11 µM) | CCOc1ccc(NC2=C(Cl)C(=O)c3[nH]c(-c4ccccn4)nc3C2=O)cc1
6.3 µg/mL (≈ 14.7 µM) | 3.2 µg/mL (≈ 7.45 µM) | 6.3 µg/mL (≈ 14.7 µM) | 1.6 µg/mL (≈ 3.72 µM) | O=C1C(Cl)=C(Nc2ccc(Br)cc2)C(=O)c2[nH]c(-c3ccccn3)nc21
6.3 µg/mL (≈ 19.1 µM) | 3.2 µg/mL (≈ 9.69 µM) | 0.4 µg/mL (≈ 1.21 µM) | 0.8 µg/mL (≈ 2.42 µM) | Cc1ccc(NC2=CC(=O)c3[nH]c(-c4ccccn4)nc3C2=O)cc1
6.3 µg/mL (≈ 16.4 µM) | 6.3 µg/mL (≈ 16.4 µM) | 6.3 µg/mL (≈ 16.4 µM) | 3.2 µg/mL (≈ 8.31 µM) | O=C1C(Cl)=C(Nc2ccc(Cl)cc2)C(=O)c2[nH]c(-c3ccccn3)nc21
6.3 µg/mL (≈ 48.8 µM) | 3.2 µg/mL (≈ 24.8 µM) | 6.3 µg/mL (≈ 48.8 µM) | 6.3 µg/mL (≈ 48.8 µM) | Nc1nc(=O)[nH]cc1F [FLUCYTOSINE]
